By IC50 is commonly meant the concentration at which inhibition is half-maximal. In general, inhibition refers to the percentage by which the read-out fell short of the control.

Test [1] concerns anti CD2/3/28 stimulated IL-17 release from PBMC of COPD patients. Briefly: Ex-vivo IL-17 inhibition from PBMCs of COPD patients. It is filed as cell-based, human. The following applies: for IC50: average over patients, 72 hrs. The procedure: (§1) Ex vivo effect of ROR γt inhibitors were evaluated on tissue samples of eligible subjects suffering from moderate (Stage II), severe (Stage III) to very severe (Stage IV) COPD classified in accordance with GOLD guidelines.
Blood was collected in a heparin tube prior to bronchoscopy. 1:1 diluted blood was layered over Histopaque and centrifuged at 400 g, 30 min, at room temperature. The PBMC layer at the interface was aspirated and washed twice with PBS prior to re-suspension in 10% FBS containing media.
(§2) PBMCs or BAL cells were seeded at 1-2×10^5 cells per well onto 96-well flat bottomed plates pre-coated with 2 μg/ml of CD2 antibody (LEAF Purified, Biolegend, #300212) and 10 μg/ml of CD3 antibody (Purified NA/LE, BD, #555329). This was followed by the pre-treatment with compounds (concentrations ranging from 1 nM to 10 uM) and roflumilast for one hour prior to addition of 2 μg/ml of soluble CD28 antibody (LEAF purified, Biolegend, #302914). BAL cells and PBMC were then incubated at 37° C. for 72 hrs in 5% CO2 incubator, after which supematants were collected and stored at −80° C. prior to cytokine analysis.
(§3) Supematants were analysed for IL-17A using either the High Sensitivity ELISA (eBioscience), or the LEGEND MAX™ ELISA kit (Biolegend) according to the manufacturer's instructions.
(§4) IL-17 cytokine concentrations in the supematants were determined from the standard curve plot. Percent inhibition for each set treated with compound was calculated using the formula: Percent inhibition={100−(pg/ml of test compound/pg/ml of control×100)}. IC50 values were calculated from the dose response curves by nonlinear regression analysis using GraphPad Prism Software. Results

The target of test [2] is human RORγ receptor (GST-tagged ROR gamma ligand binding domain) (Homo sapiens (Human), UniProt P51449). The test can be described thus: TR-FRET assay for ROR gamma (Lantha Screen co-activator peptide recruitment). It is filed as biochemical. As to conditions: 10 nM GST-tagged ROR gamma LBD, read-out: IC50 value for inhibiting human RORγ receptor activity. An excerpt:
The compounds described herein were screened for RORγ inhibitor activity using the TR-FRET assay by Lantha Screen as described in JBC 2011, 286, 26: 22707-10; and Drug Metabolism and Disposition 2009, 37, 10: 2069-78
TR-FRET Assay for ROR Gamma:
The assay is based on the principle that binding of the agonist to the RORγ causes a conformational change around helix 12 in the ligand binding domain, resulting in higher affinity for the co-activator peptide. The Fluorescein-D22 co-activator peptide used in the assay is recruited in the absence of a ligand. Binding of the co-activator peptide, causes an increase in the TR-FRET signal while binding of an inhibitor decreases the recruitment of the co-activator peptide, causing a decrease in the TR-FRET signal compared to a control with no test compound. The assay was performed using a two-step procedure, pre-incubation step with the test compound followed by the detection step on addition of the anti-GST tagged terbium (Tb) and fluorescein tagged fluorophores as the acceptor.
Test compounds or reference compounds such as T0901317 (Calbiochem) were dissolved in dimethylsulfoxide (DMSO) to prepare 10.0 mM stock solutions and diluted to the desired concentration. The final concentration of DMSO in the reaction was 4% (v/v). The assay mixture was prepared by mixing 10 nM of the GST-tagged ROR gamma ligand binding domain (LBD) in the assay buffer containing 25 mM HEPES (pH 7.4), 100 mM NaCl, 5 mM DTT and 0.01% BSA with or without the desired concentration of the test compound. The reaction was incubated at 22° C. for 1 hour. The pre-incubation step was terminated by addition of the detection mixture containing 300 nM Fluorescein-D22 co-activator peptide and 10 nM lantha screen Tb-anti GST antibody into the reaction mixture. After shaking for 5 minutes the reaction was further incubated for 1 hour at room temperature and read at 4° C. on an Infinite F500 reader as per the kit instructions (Invitrogen). The inhibition by test compound was calculated based on the TR-FRET ratio of 520/495. The activity was calculated as a percent of the control reaction. IC50 values were calculated from dose response curve by nonlinear regression analysis using GraphPad Prism software.

For test [3], the system named is anti CD2/3/28 stimulated IL-17 release from COPD lung BAL cells. Briefly: Ex-vivo IL-17 inhibition from BAL cells of COPD patients. In kind it is cell-based, human. As to conditions: for IC50: average over patients, 72 hrs. The procedure: as §1
Flexible fiber optic bronchoscopy was performed on 6 eligible subjects (COPD patients) after written valid consent and lignocaine nebulization. Bronchoscope was wedged into bronchus, pre-warmed sterile saline solution instilled into the lobes and bronchoalveolar lavage was collected in sterile container on ice. The filtrate was passed through the cell strainer for removing the particulate matter and centrifuged at 2000 rpm for 10 mins. The BAL cell pellet obtained was further treated with ACK buffer to lyse out the RBCs. Isolated BAL cells per suspended in 10% FBS containing medium.
as §2, §3, §4

Test [4] has as its system cigarette smoke (CS) induced pulmonary inflammation model in male C57BL6/J mice. The test can be described thus: Cigarette smoke (CS) induced pulmonary inflammation model, 7 days exposure, BAL cell count. It is filed as in vivo. As to conditions: i.n., od, 7 days CS exposure; for CS mediated increase in macrophages in BALf / CS mediated increase in neutrophils in BALf / CS mediated increase in total leukocyte count (TLC) in BALf: BAL 20 hours after last smoke exposure. The procedure:
Male C57BL/6 mice were exposed alternately to cigarette smoke (10 Kentucky Research Cigarettes 3R4F) and fresh air for 50 minutes (10 seconds cigarette smoke+5 seconds air for 19 puffs per cigarette) twice daily for 7 days in a whole-body box exposure system (SIU24, ProMech Lab Holding AB, Sweden). Test compounds were sonicated in 1×PBS containing 0.005% tween 80. For localized delivery to lung, animals were administered vehicle or test compounds intranasally (i.n.) (40 μl per animal) under isoflurane anaesthesia, once or twice in a day, 1 hour before smoke exposure. Non-drug-treated air and smoked control animals were given vehicle before exposure to fresh air or smoke as appropriate. Animals were sacrificed 20 hours after the last smoke exposure and subjected to bronchoalveolar lavage (BAL). Total and differential BAL cell count was performed.
BAL was performed at approximately 20 hours after final smoke exposure. Animals were euthanized with an overdose of urethane, trachea was exposed and BAL was performed 4 times using 0.3 ml PBS. All aspirates of BAL were pooled and total numbers of cells were determined using a hemocytometer. BALf was centrifuged. The cell pellet collected after centrifugation was resuspended in 15 μL serum and used for preparation of smears.
For cell differentials, slides were stained with Leishman's stain and a differential cell count of 500 cells based on standard morphology was performed manually.
Total and differential cell count was determined in the BALf. The results were expressed as percent inhibition of leukocytes in BALf. The change in the treatments was statistically evaluated by ANOVA followed by Dunnett's multiple comparisons test.

human RORγ receptor (GST-tagged ROR gamma ligand binding domain), sequence (P51449 269-508): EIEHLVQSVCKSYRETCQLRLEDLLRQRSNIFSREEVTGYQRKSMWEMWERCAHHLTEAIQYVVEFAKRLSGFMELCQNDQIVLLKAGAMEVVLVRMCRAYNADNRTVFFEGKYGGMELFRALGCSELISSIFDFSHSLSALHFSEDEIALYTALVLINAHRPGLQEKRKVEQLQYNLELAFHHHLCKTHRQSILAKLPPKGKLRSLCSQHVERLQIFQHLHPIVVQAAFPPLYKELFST

For `CCS(=O)(=O)c1ccc(CC(=O)Nc2ccc(OC(C)(C)c3ncc(Cl)cc3Cl)c(F)c2)cc1` [Compound 11], the half-inhibitory concentration (IC50) in test [1] was 84 nM; in test [2], 25.7 nM; in test [3], 2700 nM.

As to `CCS(=O)(=O)c1ccc(CC(=O)Nc2ccc(OC3(c4ccc(Cl)cc4Cl)CCOCC3)c(F)c2)cc1` [Compound 10], the half-inhibitory concentration (IC50) in test [1] amounted to 367 nM; in test [2], 16.2 nM; in test [3], 720 nM.

As to `CCS(=O)(=O)c1ccc(CC(=O)Nc2ccc(C#CC(C)(C)Oc3ccc(Cl)c(F)c3)cc2)cc1` [Compound 5], the IC50 in test [2] amounted to 17.4 nM.

`CCS(=O)(=O)c1ccc(CC(=O)Nc2ccc(OC3(c4ccc(Cl)cc4Cl)CCOCC3)cc2)cc1` [Compound 9] gave an IC50 in test [1] (Homo sapiens) of 360 nM. Further, in test [4], the “inhibition of pulmonary inflammation induced by cigarette smoke” value is given as “significant inhibition”, the “CS mediated increase in macrophages in BALf” value is reported as “significantly prevented”, the “CS mediated increase in neutrophils in BALf” value was “significantly prevented” and the “CS mediated increase in total leukocyte count (TLC) in BALf” value was “significantly prevented”. Moreover, in test [2], the half-maximal inhibitory concentration (IC50) worked out at 18.4 nM. In test [3] (Homo sapiens), this molecule gave an IC50 of 2390 nM.

Turning to `CCS(=O)(=O)c1ccc(CC(=O)Nc2ccc(OC(C)(C)c3ccc(Cl)cc3Cl)cc2)cc1` [Compound 3], in test [4], the “inhibition of pulmonary inflammation induced by cigarette smoke” value is recorded as “significant inhibition”, the “CS mediated increase in macrophages in BALf” value is “significantly prevented”, the “CS mediated increase in neutrophils in BALf” value is “significantly prevented” and the “CS mediated increase in total leukocyte count (TLC) in BALf” value is on record as “significantly prevented”. Moreover, the 50% inhibitory concentration (IC50) in test [2] came out at 5.52 nM.

As for `CCS(=O)(=O)c1ccc(CC(=O)Nc2ccc(OC(C)(C)c3ccc(Cl)cc3Cl)c(F)c2)cc1` [Compound 4], the IC50 in test [2] is 5.99 nM.

Take `CCn1c(C(C)(C)Oc2ccc(F)cc2F)nc2cc(NC(=O)Cc3ccc(S(=O)(=O)CC)cc3)ccc21` [Compound 1]: the 50% inhibitory concentration (IC50) stood at 147 nM in test [1] (Homo sapiens), 4.26 nM in test [2] and 350 nM in test [3] (Homo sapiens).

As for `O=C(Nc1c(Cl)cncc1Cl)c1ccc(OC(F)F)c(OCC2CC2)c1` [Roflumilast, reference compound], the inhibition at 10 µM in test [1] (Homo sapiens, at 10 μM, read-out: PBMC IL-17 percent inhibition) was 20.2%; in test [3] (Homo sapiens, at 10 μM, read-out: BAL IL-17 percent inhibition) it was 6.75%.

The record behind these values is patent US9855229B2, “Treatment of respiratory disorders using ROR-gamma inhibitors” (Glenmark Pharmaceuticals S.A., priority 2015, dated 2018).
